Measurements from PubChem BioAssay (NCI).
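48-hour exposure; five concentrations; linearly interpolated endpoints. TGI denotes the concentration required for complete inhibition of growth.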

Experiments:
Assay in all cases: NCI tumour cell line growth inhibition, 48 h
786-0 renal = test system: 786-0 renal
A498 renal = test system: A498 renal
A549 NSCLC = test system: A549 NSCLC
ACHN renal = test system: ACHN renal
BT-549 breast = test system: BT-549 breast
CAKI-1 renal = test system: CAKI-1 renal
CCRF-CEM leukemia = test system: CCRF-CEM leukemia
COLO 205 colon = test system: COLO 205 colon
DU-145 prostate = test system: DU-145 prostate
EKVX NSCLC = test system: EKVX NSCLC
HCC-2998 colon = test system: HCC-2998 colon
HCT-116 colon = test system: HCT-116 colon
HCT-15 colon = test system: HCT-15 colon
HL-60(TB) leukemia = test system: HL-60(TB) leukemia
HOP-62 NSCLC = test system: HOP-62 NSCLC
HOP-92 NSCLC = test system: HOP-92 NSCLC
HS 578T breast = test system: HS 578T breast
HT29 colon = test system: HT29 colon
IGROV1 ovarian = test system: IGROV1 ovarian
KM12 colon = test system: KM12 colon
LOX IMVI melanoma = test system: LOX IMVI melanoma
M14 melanoma = test system: M14 melanoma
MALME-3M melanoma = test system: MALME-3M melanoma
MCF7 breast = test system: MCF7 breast
MDA-MB-231 breast = test system: MDA-MB-231 breast
MDA-MB-435 = test system: MDA-MB-435
MDA-N = test system: MDA-N
MOLT-4 leukemia = test system: MOLT-4 leukemia
NCI-H226 lung = test system: NCI-H226 lung
NCI-H23 lung = test system: NCI-H23 lung
NCI-H460 lung = test system: NCI-H460 lung
NCI-H522 lung = test system: NCI-H522 lung
NCI/ADR-RES ovarian = test system: NCI/ADR-RES ovarian
OVCAR-3 ovarian = test system: OVCAR-3 ovarian
OVCAR-4 ovarian = test system: OVCAR-4 ovarian
OVCAR-5 ovarian = test system: OVCAR-5 ovarian
OVCAR-8 ovarian = test system: OVCAR-8 ovarian
PC-3 prostate = test system: PC-3 prostate
RPMI-8226 leukemia = test system: RPMI-8226 leukemia
RXF 393 renal = test system: RXF 393 renal
SF-268 CNS = test system: SF-268 CNS
SF-295 CNS = test system: SF-295 CNS
SF-539 CNS = test system: SF-539 CNS
SK-MEL-2 melanoma = test system: SK-MEL-2 melanoma
SK-MEL-28 melanoma = test system: SK-MEL-28 melanoma
SK-MEL-5 melanoma = test system: SK-MEL-5 melanoma
SK-OV-3 ovarian = test system: SK-OV-3 ovarian
SN12C renal = test system: SN12C renal
SNB-19 CNS = test system: SNB-19 CNS
SNB-75 CNS = test system: SNB-75 CNS
SR leukemia = test system: SR leukemia
SW-620 colon = test system: SW-620 colon
T-47D breast = test system: T-47D breast
TK-10 renal = test system: TK-10 renal
U251 CNS = test system: U251 CNS
UACC-257 melanoma = test system: UACC-257 melanoma
UACC-62 melanoma = test system: UACC-62 melanoma
UO-31 renal = test system: UO-31 renal
DLD-1 colon = test system: DLD-1 colon
DMS 273 small cell lung = test system: DMS 273 small cell lung
K-562 leukemia = test system: K-562 leukemia
KM20L2 colon = test system: KM20L2 colon
LXFL 529 NSCLC = test system: LXFL 529 NSCLC
M19-MEL melanoma = test system: M19-MEL melanoma
SNB-78 CNS = test system: SNB-78 CNS

Compound `NC(CCC(=O)NC(CSCC1C(=O)Nc2ccccc21)C(=O)NCC(=O)O)C(=O)O` (centres undefined) has a TGI (786-0 renal) of 8.55 µM, a TGI (A498 renal) of 33.1 µM and a TGI (A549 NSCLC) of 19.7 µM. It also gave a TGI (ACHN renal) of 20 µM, a TGI (BT-549 breast) of 15.9 µM and a TGI (CAKI-1 renal) of 9.95 µM. The TGI (CCRF-CEM leukemia) was over 24.8 µM, the TGI (COLO 205 colon) was 10.5 µM and the TGI (DU-145 prostate) was 12.9 µM. It also gave a TGI (EKVX NSCLC) of 31.2 µM, a TGI (HCC-2998 colon) of 10.6 µM and a TGI (HCT-116 colon) of 9.27 µM. It also gave a TGI (HCT-15 colon) of 11 µM, a TGI (HL-60(TB) leukemia) of 47.5 µM and a TGI (HOP-62 NSCLC) of 38.6 µM. It also gave a TGI (HOP-92 NSCLC) of 9.55 µM, a TGI (HS 578T breast) of over 100 µM and a TGI (HT29 colon) of 14.7 µM. It also gave a TGI (IGROV1 ovarian) of 13 µM, a TGI (KM12 colon) of over 32.9 µM and a TGI (LOX IMVI melanoma) of 2780 nM. The TGI (M14 melanoma) was 10.8 µM, the TGI (MALME-3M melanoma) was 20 µM and the TGI (MCF7 breast) was 17.5 µM. For the same compound, the TGI (MDA-MB-231 breast) was 18.9 µM, the TGI (MDA-MB-435) was 14.8 µM and the TGI (MDA-N) was 16.7 µM. For the same compound, the TGI (MOLT-4 leukemia) was 12.8 µM, the TGI (NCI-H226 lung) was 21.9 µM and the TGI (NCI-H23 lung) was 11.3 µM. The TGI (NCI-H460 lung) was 37.2 µM, the TGI (NCI-H522 lung) was 2.8 µM and the TGI (NCI/ADR-RES ovarian) was 19.7 µM. For the same compound, the TGI (OVCAR-3 ovarian) was 11.2 µM, the TGI (OVCAR-4 ovarian) was over 22.2 µM and the TGI (OVCAR-5 ovarian) was 31.1 µM. The TGI (OVCAR-8 ovarian) was 13.4 µM, the TGI (PC-3 prostate) was 49 µM and the TGI (RPMI-8226 leukemia) was 6.52 µM. The TGI (RXF 393 renal) was 2.33 µM, the TGI (SF-268 CNS) was 15.5 µM and the TGI (SF-295 CNS) was over 45.6 µM. The TGI (SF-539 CNS) was 18.3 µM, the TGI (SK-MEL-2 melanoma) was 25.4 µM and the TGI (SK-MEL-28 melanoma) was 14.5 µM. It also gave a TGI (SK-MEL-5 melanoma) of over 44.8 µM, a TGI (SK-OV-3 ovarian) of over 49.4 µM and a TGI (SN12C renal) of 13.9 µM. The TGI (SNB-19 CNS) was over 100 µM, the TGI (SNB-75 CNS) was 8.2 µM and the TGI (SR leukemia) was 2510 nM. For the same compound, the TGI (SW-620 colon) was 10.7 µM, the TGI (T-47D breast) was over 23.3 µM and the TGI (TK-10 renal) was 18.9 µM. It also gave a TGI (U251 CNS) of 18.3 µM, a TGI (UACC-257 melanoma) of 19.5 µM and a TGI (UACC-62 melanoma) of 23.6 µM. The TGI (UO-31 renal) was 1.74 µM.

`COc1c(C(C)C)cc2c3c1OC(=O)[C@@]31CCCC(C)(C)C1CC2` (some centres undefined) showed a TGI (786-0 renal) of over 100 µM, a TGI (A549 NSCLC) of 60.1 µM and a TGI (ACHN renal) of over 100 µM. The TGI (CAKI-1 renal) was over 100 µM, the TGI (CCRF-CEM leukemia) was 59.7 µM and the TGI (COLO 205 colon) was 31.9 µM. It also gave a TGI (DLD-1 colon) of over 100 µM, a TGI (DMS 273 small cell lung) of over 100 µM and a TGI (EKVX NSCLC) of 65.3 µM. The TGI (HCC-2998 colon) was over 100 µM, the TGI (HCT-116 colon) was 29.1 µM and the TGI (HCT-15 colon) was over 100 µM. The TGI (HL-60(TB) leukemia) was 37.4 µM, the TGI (HOP-62 NSCLC) was over 100 µM and the TGI (HT29 colon) was over 100 µM. It also gave a TGI (IGROV1 ovarian) of over 100 µM, a TGI (K-562 leukemia) of over 100 µM and a TGI (KM20L2 colon) of over 100 µM. The TGI (LOX IMVI melanoma) was over 100000 nM, the TGI (LXFL 529 NSCLC) was 49.8 µM and the TGI (M14 melanoma) was over 100 µM. It also gave a TGI (M19-MEL melanoma) of 80.8 µM, a TGI (MALME-3M melanoma) of 98.5 µM and a TGI (MOLT-4 leukemia) of over 100 µM. For the same compound, the TGI (NCI-H226 lung) was 44.4 µM, the TGI (NCI-H23 lung) was 89.9 µM and the TGI (NCI-H460 lung) was over 100 µM. For the same compound, the TGI (NCI-H522 lung) was 38.7 µM, the TGI (OVCAR-3 ovarian) was 83.3 µM and the TGI (OVCAR-5 ovarian) was over 100 µM. For the same compound, the TGI (OVCAR-8 ovarian) was 62 µM, the TGI (RPMI-8226 leukemia) was 59.8 µM and the TGI (RXF 393 renal) was 56.3 µM. The TGI (SF-268 CNS) was over 100 µM, the TGI (SF-295 CNS) was 78.7 µM and the TGI (SF-539 CNS) was 44.8 µM. It also gave a TGI (SK-MEL-2 melanoma) of 84 µM, a TGI (SK-MEL-28 melanoma) of over 100 µM and a TGI (SK-MEL-5 melanoma) of 28.4 µM. It also gave a TGI (SK-OV-3 ovarian) of 76.1 µM, a TGI (SN12C renal) of over 100 µM and a TGI (SNB-19 CNS) of 51.8 µM. It also gave a TGI (SNB-75 CNS) of 55.7 µM, a TGI (SNB-78 CNS) of 67.1 µM and a TGI (SR leukemia) of over 100000 nM. For the same compound, the TGI (SW-620 colon) was over 100 µM, the TGI (TK-10 renal) was 99.8 µM and the TGI (U251 CNS) was over 100 µM. It also gave a TGI (UACC-257 melanoma) of 54.1 µM, a TGI (UACC-62 melanoma) of over 100 µM and a TGI (UO-31 renal) of 57.8 µM.
